Data reported in patent publication US6858591B2, “Antibiotic AA 896 analogs” (Wyeth Holdings Corporation, priority 2001, dated 2005).
In brackets after ≈: the same amount, converted by molar mass. Like-named read-outs stand apart in the source and are kept apart here.

Experiments:
Assay in all cases: In vitro MIC, broth dilution
Assay type in all cases: cell-based
[1] = test system: E. coli GC 4559; settings: Escherichia coli, GC4559
[2] = test system: E. coli GC 4560; settings: Escherichia coli, GC4560
[3] = test system: E. coli GC 3226; settings: Escherichia coli, GC3226
[4] = test system: S. marcescens GC 4077; settings: Serratia marcescens, GC4077
[5] = test system: C. albicans GC 3066; settings: Candida albicans, GC3066
[6] = test system: M. morganii GC 4531; settings: Morganella morganii, GC4531
[7] = test system: K. pneumoniae GC 4534; settings: Klebsiella pneumoniae, GC4534
[8] = test system: E. cloacae GC 3783; settings: Enterobacter cloacae, GC3783
[9] = test system: P. aeruginosa GC 4532; settings: Pseudomonas aeruginosa, GC4532
[10] = test system: CNS GC 4537
Summary of the method: (§1)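 Organisms were inoculated at 5×10^5 CFU/ml into Mueller-Hinton II containing antibiotic at 64-0.06 μg/ml, then incubated 18 hours at 35° C in ambient air. The MIC was the lowest concentration that inhibited growth.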

[11] = test system: CNS GC 4538
Summary of the method: as §1

[12] = test system: CNS GC 4547
Summary of the method: as §1

[13] = test system: E. faecalis GC 2242; settings: Enterococcus faecalis, GC2242
Summary of the method: as §1

[14] = test system: E. faecalis GC 4555; settings: Enterococcus faecalis, GC4555
Summary of the method: as §1

[15] = test system: E. faecalis GC 842; settings: Enterococcus faecalis, GC842
Summary of the method: as §1

[16] = test system: S. aureus GC 1131; settings: Staphylococcus aureus, GC1131
Summary of the method: as §1

[17] = test system: S. aureus GC 2216; settings: Staphylococcus aureus, GC2216
Summary of the method: as §1

[18] = test system: S. aureus GC 4536; settings: Staphylococcus aureus, GC4536
Summary of the method: as §1

[19] = test system: E. coli GC 2203; settings: Escherichia coli, GC2203
[20] = test system: P. aeruginosa GC 2214; settings: Pseudomonas aeruginosa, GC2214
[21] = S. marcescens GC 4077, read-out: MIC
[22] = C. albicans GC 3066, read-out: MIC
[23] = M. morganii GC 4531, read-out: MIC
[24] = K. pneumoniae GC 4534, read-out: MIC
[25] = E. cloacae GC 3783, read-out: MIC
[26] = P. aeruginosa GC 4532, read-out: MIC
[27] = E. faecalis GC 2242, read-out: MIC
[28] = E. faecalis GC 4555, read-out: MIC
[29] = E. faecalis GC 842, read-out: MIC
[30] = S. aureus GC 1131, read-out: MIC
[31] = S. aureus GC 2216, read-out: MIC
[32] = S. aureus GC 4536, read-out: MIC
[33] = P. aeruginosa GC 2214, read-out: MIC

| SMILES | MIC [1] [µg/mL] | MIC [2] [µg/mL] | MIC [3] [µg/mL] | MIC [4] [µg/mL] | MIC [5] [µg/mL] | MIC [6] [µg/mL] | MIC [7] [µg/mL] | MIC [8] [µg/mL] | MIC [9] [µg/mL] | MIC [10] [µg/mL] | MIC [11] [µg/mL] | MIC [12] [µg/mL] | MIC [13] [µg/mL] | MIC [14] [µg/mL] | MIC [15] [µg/mL] | MIC [16] [µg/mL] | MIC [17] [µg/mL] | MIC [18] [µg/mL] | MIC [19] [µg/mL] | MIC [20] [µg/mL] | also measured |
| --- | --- | --- | --- | --- | --- | --- | --- | --- | --- | --- | --- | --- | --- | --- | --- | --- | --- | --- | --- | --- | --- |
| COc1ccc(Cn2c(=O)ccn([C@@H]3OC([C@H](O)[C@H](NCCCNC(=O)[C@H](CC(C)C)NC(=O)[C@H](CCCNC(=N)N)NC(=O)N[C@H](C(=O)O)C(C)C)C(=O)OC(C)(C)C)[C@@H](O[Si](C)(C)C(C)(C)C)[C@H]3O[Si](C)(C)C(C)(C)C)c2=O)cc1 (stereo partly drawn) [Example 29, (2S,6S,9S,16S)-6-(3-{[Amino(imino)methyl]amino}propyl)-16-[(R)-[(3R,4R,5R)-3,4-bis{[tert-butyl(dimethyl)silyl]oxy}-5-(3-(4-methoxybenzyl)-2,4-dioxo-3,4-dihydro-1(2H)-pyrimidinyl)tetrahydro-2-furanyl](hydroxy)methyl]-9-isobutyl-2-isopropyl-19,19-dimethyl-4,7,10,17-tetraoxo-18-oxa-3,5,8,11,15-pentaazaicosan-1-oic acid] | > 128 | 128 (≈ 107 µM) | > 128 | 128 (≈ 107 µM) | > 128 | 128 (≈ 107 µM) | 128 (≈ 107 µM) | 128 (≈ 107 µM) | 128 (≈ 107 µM) | > 128 | > 128 | > 128 | 128 (≈ 107 µM) | > 128 | 128 (≈ 107 µM) | > 128 | > 128 | > 128 | > 128 | 128 (≈ 107 µM) |  |
| COc1ccc(Cn2c(=O)ccn([C@@H]3OC([C@H](O)[C@H](NCCCNC(=O)[C@H](CC(C)C)NC(=O)[C@H](CCCNC(=N)N)NC(=O)N[C@H](C(=O)O)C(C)C)C(=O)O)[C@@H](O)[C@H]3O)c2=O)cc1 (stereo partly drawn) [Example 50, (2S,6S,9S,16S)-6-(3-{[Amino(imino)methyl]amino}propyl)-16-[(R)-[(3S,4R,5R)-3,4-dihydroxy-5-(3-(4-methoxybenzyl)-2,4-dioxo-3,4-dihydro-1(2H)-pyrimidinyl)tetrahydro-2-furanyl](hydroxy)-methyl]-9-isobutyl-2-isopropyl-4,7,10-trioxo-3,5,8,11,15-pentaazaheptadecane-1,17-dioic acid] |  |  |  |  |  |  |  |  |  |  |  |  |  |  |  |  |  |  |  |  | MIC ([1]; E. coli GC 4559, read-out: MIC): > 128 µg/mL; MIC ([2]; E. coli GC 4560, read-out: MIC): > 128 µg/mL; MIC ([3]; E. coli GC 3226, read-out: MIC): > 128 µg/mL; MIC [4, 21]: > 128 µg/mL; MIC [5, 22]: 128 µg/mL (≈ 141 µM); MIC [6, 23]: 128 µg/mL (≈ 141 µM); MIC [7, 24]: > 128 µg/mL; MIC [8, 25]: > 128 µg/mL; MIC [9, 26]: 128 µg/mL (≈ 141 µM); MIC ([10]; CNS GC 4537, read-out: MIC): > 128 µg/mL; MIC ([11]; CNS GC 4538, read-out: MIC): > 128 µg/mL; MIC ([12]; CNS GC 4547, read-out: MIC): > 128 µg/mL; MIC [13, 27]: 128 µg/mL (≈ 141 µM); MIC [14, 28]: > 128 µg/mL; MIC [15, 29]: > 128 µg/mL; MIC [16, 30]: > 128 µg/mL; MIC [17, 31]: > 128 µg/mL; MIC [18, 32]: > 128 µg/mL; MIC ([19]; E. coli GC 2203, read-out: MIC): > 128 µg/mL; MIC [20, 33]: 128 µg/mL (≈ 141 µM) |
| COc1ccc(Cn2c(=O)ccn([C@@H]3OC([C@H](O)[C@H](NC(=O)CCCCCCCCCCNC(=O)OCC4c5ccccc5-c5ccccc54)C(=O)OC(C)(C)C)[C@@H](O[Si](C)(C)C(C)(C)C)[C@H]3O[Si](C)(C)C(C)(C)C)c2=O)cc1 (stereo partly drawn) [Example 22, tert-Butyl (2S,3R)-3-[(3R,4R,5R)-3,4-bis{[tert-butyl(dimethyl)silyl]oxy}-5-(3-(4-methoxybenzyl)-2,4-dioxo-3,4-dihydro-1(2H)-pyrimidinyl)tetrahydro-2-furanyl]-2-[(11-{[(9H-fluoren-9-ylmethoxy)carbonyl]amino}undecanoyl)-amino]-3-hydroxypropanoate] | > 128 | > 128 | > 128 | > 128 | > 128 | > 128 | > 128 | > 128 | > 128 | > 128 | > 128 | > 128 | > 128 | > 128 | > 128 | > 128 | > 128 | > 128 | > 128 | > 128 |  |
| COc1ccc(Cn2c(=O)ccn([C@@H]3OC([C@@H](O)[C@H](NCCCNC(=O)[C@@H](N)[C@H](C)O)C(=O)OC(C)(C)C)[C@@H](O[Si](C)(C)C(C)(C)C)[C@H]3O[Si](C)(C)C(C)(C)C)c2=O)cc1 (stereo partly drawn) [Example 9, tert-Butyl (2S,3S)-2-[(3-{[(2S,3S)-2-amino-3-hydroxybutanoyl]amino}propyl)amino]-3-[(3R,4R,5R)-3,4-bis{[tert-butyl(dimethyl)silyl]oxy}-5-(3-(4-methoxybenzyl)-2,4-dioxo-3,4-dihydro-1(2H)-pyrimidinyl)tetrahydro-2-furanyl]-3-hydroxypropanoate] |  |  |  |  |  |  |  |  |  |  |  |  |  |  |  |  |  |  |  |  | MIC ([1]; E. coli GC 4559, read-out: MIC): > 128 µg/mL; MIC ([2]; E. coli GC 4560, read-out: MIC): 128 µg/mL (≈ 145 µM); MIC ([3]; E. coli GC 3226, read-out: MIC): > 128 µg/mL; MIC [4, 21]: > 128 µg/mL; MIC [5, 22]: 128 µg/mL (≈ 145 µM); MIC [6, 23]: > 128 µg/mL; MIC [7, 24]: > 128 µg/mL; MIC [8, 25]: > 128 µg/mL; MIC [9, 26]: 128 µg/mL (≈ 145 µM); MIC ([10]; CNS GC 4537, read-out: MIC): 128 µg/mL (≈ 145 µM); MIC ([11]; CNS GC 4538, read-out: MIC): 128 µg/mL (≈ 145 µM); MIC ([12]; CNS GC 4547, read-out: MIC): 8 µg/mL (≈ 9.09 µM); MIC [13, 27]: 128 µg/mL (≈ 145 µM); MIC [14, 28]: 128 µg/mL (≈ 145 µM); MIC [15, 29]: > 128 µg/mL; MIC [16, 30]: 128 µg/mL (≈ 145 µM); MIC [17, 31]: 128 µg/mL (≈ 145 µM); MIC [18, 32]: 128 µg/mL (≈ 145 µM); MIC ([19]; E. coli GC 2203, read-out: MIC): > 128 µg/mL; MIC [20, 33]: 128 µg/mL (≈ 145 µM) |
| COc1ccc(Cn2c(=O)ccn([C@@H]3OC([C@@H](O)[C@H](NCCCNC(=O)C(NC(=O)OCc4ccccc4)[C@@H](O)C(C)C)C(=O)OC(C)(C)C)[C@@H](O[Si](C)(C)C(C)(C)C)[C@H]3O[Si](C)(C)C(C)(C)C)c2=O)cc1 (stereo in doubt) [Example 3, tert-Butyl (5R,12S)-12-[(S)-[(3R,4R,5R)-3,4-bis{[tert-butyl(dimethyl)silyl]oxy}-5-(3-(4-methoxybenzyl)-2,4-dioxo-3,4-dihydro-1(2H)-pyrimidinyl)tetrahydro-2-furanyl](hydroxy)methyl]-5-[(1S)-1-hydroxy-2-methylpropyl]-3,6-dioxo-1-phenyl-2-oxa-4,7,11-triazatridecan-13-oate] | > 128 | 128 (≈ 123 µM) | > 128 | > 128 | 128 (≈ 123 µM) | 128 (≈ 123 µM) | > 128 | > 128 | 128 (≈ 123 µM) | > 128 | > 128 | 128 (≈ 123 µM) | 128 (≈ 123 µM) | 128 (≈ 123 µM) | > 128 | > 128 | > 128 | > 128 | > 128 | 128 (≈ 123 µM) |  |
| CCOC(=O)C(NCCCNC(=O)[C@@H](N)CC(C)C)[C@@H](OC(C)=O)[C@H]1O[C@H](n2ccc(=O)[nH]c2=O)[C@H](OC(C)=O)[C@@H]1OC(C)=O (stereo partly drawn) [Example 39, Ethyl (3R)-3-(acetyloxy)-2-[(3-{[(2S)-2-amino-4-methylpentanoyl]amino}propyl)amino]-3-[(2R,3R,4R,5S)-3,4-bis(acetyloxy)-5-(2,4-dioxo-3,4-dihydro-1(2H)-pyrimidinyl)tetrahydro-2-furanyl]propanoate] |  |  |  |  |  |  |  |  |  |  |  |  |  |  |  |  |  |  |  |  | MIC ([1]; E. coli GC 4559, read-out: MIC): > 128 µg/mL; MIC ([2]; E. coli GC 4560, read-out: MIC): > 128 µg/mL; MIC ([3]; E. coli GC 3226, read-out: MIC): > 128 µg/mL; MIC [4, 21]: 128 µg/mL (≈ 199 µM); MIC [5, 22]: 128 µg/mL (≈ 199 µM); MIC [6, 23]: 128 µg/mL (≈ 199 µM); MIC [7, 24]: > 128 µg/mL; MIC [8, 25]: > 128 µg/mL; MIC [9, 26]: 128 µg/mL (≈ 199 µM); MIC ([10]; CNS GC 4537, read-out: MIC): > 128 µg/mL; MIC ([11]; CNS GC 4538, read-out: MIC): > 128 µg/mL; MIC ([12]; CNS GC 4547, read-out: MIC): > 128 µg/mL; MIC [13, 27]: 128 µg/mL (≈ 199 µM); MIC [14, 28]: > 128 µg/mL; MIC [15, 29]: > 128 µg/mL; MIC [16, 30]: > 128 µg/mL; MIC [17, 31]: > 128 µg/mL; MIC [18, 32]: > 128 µg/mL; MIC ([19]; E. coli GC 2203, read-out: MIC): > 128 µg/mL; MIC [20, 33]: 128 µg/mL (≈ 199 µM) |
